Assay results published in US20240044899A1, “BIOMARKERS FOR FIMEPINOSTAT THERAPY” (Curis, Inc, priority 2021, published 2024).
“And” between values parts separate entries of the source, which are not always exact repeats. Equal entries are not always repeated. “Also recorded” adds a separate entry of the source.

Key:
[1] = Phase 1 and phase 2 clinical studies of fimepinostat, treatment-emergent adverse events (CTCAE v4.03); type: in vivo, human
Protocol: (§1) Patients received fimepinostat capsules (Pharmatek Laboratories Inc., San Diego, CA, USA) orally, within 30 minutes of a meal, in 21-day cycles until disease progression was documented or other discontinuation criteria were met. In the phase 2 protocol, change in dose and/or schedule intensity of fimepinostat were allowed as per protocol due to toxicity. Safety and tolerability were assessed by the incidence and severity of adverse events as determined by NCI Common Terminology Criteria for Adverse Events (CTCAE v4.03) in both protocols.
(§2) The intention to-treat-population included al patients from both protocols who received at least one dose of fimepinostat. The evaluable population includes all patients who received at least one dose of study drug (phase 1) or one full cycle of treatment (phase 2) and completed at least one post-baseline disease assessment. Patients were re-staged according to the Revised Response Criteria for Malignant Lymphoma.^18
All patients received fimepinostat 60 mg by mouth 5 days on/2 days off as the starting dose with the exception of 1 patient enrolled in the phase 1 protocol who received 60 mg by mouth three times weekly. Three patients enrolled in the phase 1 protocol received concurrent rituximab.
Treatment-emergent adverse events (TEAE) occurring per patient by highest grade experienced with a frequency of ≥10% are listed in Table 5. The most common TEAE of any grade were diarrhea (72%), nausea (52%) and thrombocytopenia (38%). The most common grade 3 or 4 adverse events were […], neutropenia (15%), diarrhea (12%) and anemia (12%). Three patients experienced grade 5 TEAE: respiratory failure deemed unlikely related to treatment in 1 patient, sepsis deemed not related to treatment in 1 patient and tracheal obstruction deemed not related to treatment in 1 patient. Two non-evaluable patients discontinued treatment due to TEAE: grade 2 vomiting deemed related to treatment occurring in 1 patient and grade 4 hypercalcemia deemed unlikely related to treatment in 1 patient.

[2] = system: R/R DLBCL/HGBL patients with MYC-altered disease; assay: Phase 1 and phase 2 clinical studies of fimepinostat, response and survival outcomes; type: in vivo, human
Excerpt: Included subjects were enrolled in either the dose escalation and expansion portion of the phase 1 study evaluating fimepinsotat with or without rituximab (part 1) or the phase 2 study with fimepinostat monotherapy.
For the phase 1/part 1 study, key inclusion criteria were ≥18 years of age with histopathologically confirmed diagnosis of DLBCL or transformed follicular lymphoma (tFL) refractory to or relapsed after at least 2 prior regimens, Eastern Cooperative Oncology Group (ECOG) performance status 0-2, measurable disease on baseline radiographic assessment and adequate hematologic and organ function. Key exclusion criteria were receipt of systemic anti-cancer therapy within 3 weeks of study entry, ongoing treatment with chronic immunosuppressive therapy, active CNS lymphoma and gastrointestinal conditions which may interfere with absorption of fimepinostat. For the phase 2 study, key inclusion criteria were ≥18 years of age with histopathologically confirmed diagnosis of DLBCL, HGBL or tFL refractory to or relapsed after 2-4 prior lines of therapy for the treatment of de novo DLBCL and ineligible for (or failed) autologous or allogeneic stem cell transplant (SCT), Eastern Cooperative Oncology Group (ECOG) performance status 0-1, measurable disease on baseline radiographic assessment, confirmed availability of viable tissue (defined as most recent available archival tumor tissue, or fresh tumor samples) for central laboratory FISH and IHC testing prior to study dosing and adequate hematologic and organ function. Key exclusion criteria were receipt of systemic anti-cancer therapy within 2 weeks of study entry or experimental therapy within 5 terminal half-lives (t1/2) or 4 weeks prior to enrollment, known primary mediastinal, ocular, epidural, testicular or breast lymphoma and current or planned glucocorticoid therapy with the exception of doses ≤10 mg/day prednisolone or equivalent.
as §1, §2
MYC-altered disease was defined as one or more of the following results from central testing of tumor samples: expression of MYC protein in ≥40% of lymphoma cells by immunohistochemical staining (IHC), MYC rearrangement by fluorescence in situ hybridization (FISH) or >2 copies of MYC in by FISH. IHC staining of MYC (rabbit clone Y69) and BCL2 (mouse clone 124) for patients enrolled in the phase 1 study (note MYC FISH was not centrally performed in this study) were performed by Mosaic Laboratories, LLC (Lake Forest, CA, USA). IHC staining of MYC (rabbit clone Y69) and BCL2 (mouse clone 124) as well as FISH with MYC (8q24) and BCL6 (3q27) break apart probes and BCL2 (t(14;18)) fusion probe for patients enrolled in the phase 2 study were performed by NeoGenomics Laboratories, Inc (Fort Myers, FL, USA), with positive cutoff values for MYC rearrangement (>10%), MYC copy number gain (>20%), BCL2 rearrangement (≥0.5%) and BCL6 rearrangement (>10%) as defined per laboratory standard. […]

[3] = system: DLBCL xenografts with MYC alterations; conditions: cited from earlier work
[4] = system: DLBCL patients with MYC-altered disease; conditions: 11 evaluable DLBCL patients with MYC-altered disease, phase 1, cited from earlier work
[5] = Grades 1-2, intention to treat population (n = 58)
[6] = Total, intention to treat population (n = 58)
[7] = evaluable population (n = 43), 60 mg by mouth 5 days on/2 days off
[8] = evaluable population (n = 43), estimated
[9] = individual patients achieving partial or complete response (Subject ID 1-9)

COc1ccc(-c2nc(N3CCOCC3)c3sc(CN(C)c4ncc(C(=O)NO)cn4)cc3n2)cn1 [fimepinostat, Fimepinostat]
TEAE Hypokalemia, patients n (%) [1, 5]: 7 (12) | TEAE Hypomagnesaemia, patients n (%) [1, 5]: 7 (12) | TEAE Hypophosphatemia, patients n (%) [1, 5]: 2 (3) | TEAE Lymphocyte count decreased, patients n (%) [1, 5]: 3 (5) | TEAE Nausea, patients n (%) [1, 5]: 30 (52) | TEAE Neutropenia, patients n (%) [1, 5]: 2 (3) | TEAE Pain in extremity, patients n (%) [1, 5]: 6 (10) | TEAE Pyrexia, patients n (%) [1, 5]: 9 (16) | TEAE Thrombocytopenia, patients n (%) [1, 5]: 8 (14) | TEAE Upper respiratory tract infection, patients n (%) [1, 5]: 6 (10) | TEAE Vomiting, patients n (%) [1, 5]: 15 (26) | TEAE Weight decreased, patients n (%) [1, 5]: 7 (12) | TEAE White blood cell count decreased, patients n (%) [1, 5]: 3 (5) | Diarrhea, frequency ([1]; TEAE of any grade): 72% | Nausea, frequency ([1]; TEAE of any grade): 52% | Thrombocytopenia, frequency ([1]; TEAE of any grade): 38% | TEAE Abdominal pain, patients n (%) [1, 6]: 9 (16) | TEAE Anemia, patients n (%) [1, 6]: 13 (22) | TEAE Arthralgia, patients n (%) [1, 6]: 7 (12) | TEAE Back pain, patients n (%) [1, 6]: 6 (10) | TEAE Constipation, patients n (%) [1, 6]: 14 (24) | TEAE Cough, patients n (%) [1, 6]: 9 (16) | TEAE Decreased appetite, patients n (%) [1, 6]: 18 (31) | TEAE Diarrhea, patients n (%) [1, 6]: 42 (72) | TEAE Dizziness, patients n (%) [1, 6]: 8 (14) | TEAE Dyspnea, patients n (%) [1, 6]: 9 (16) | TEAE Edema peripheral, patients n (%) [1, 6]: 6 (10) | TEAE Fatigue, patients n (%) [1, 6]: 19 (33) | TEAE Hypokalemia, patients n (%) [1, 6]: 13 (22) | TEAE Hypomagnesaemia, patients n (%) [1, 6]: 7 (12) | TEAE Hypophosphatemia, patients n (%) [1, 6]: 6 (10) | TEAE Lymphocyte count decreased, patients n (%) [1, 6]: 6 (10) | TEAE Nausea, patients n (%) [1, 6]: 30 (52) | TEAE Neutropenia, patients n (%) [1, 6]: 11 (19) | TEAE Pain in extremity, patients n (%) [1, 6]: 7 (12) | TEAE Pyrexia, patients n (%) [1, 6]: 10 (17) | TEAE Thrombocytopenia, patients n (%) [1, 6]: 22 (38) | TEAE Upper respiratory tract infection, patients n (%) [1, 6]: 6 (10) | TEAE Vomiting, patients n (%) [1, 6]: 16 (28) | TEAE Weight decreased, patients n (%) [1, 6]: 8 (14) | TEAE White blood cell count decreased, patients n (%) [1, 6]: 7 (12) | Non-evaluable patients who discontinued treatment due to TEAE, number ([1]; grade 2 vomiting (related), grade 4 hypercalcemia (unlikely related)): Two | Anemia, frequency ([1]; grade 3 or 4): 12% | Diarrhea, frequency ([1]; grade 3 or 4): 12% | Most common grade 3 or 4 adverse event (event name not given), frequency ([1]; grade 3 or 4): 24% | Neutropenia, frequency ([1]; grade 3 or 4): 15% | Patients who experienced grade 5 TEAE, number ([1]; respiratory failure, sepsis, tracheal obstruction, unlikely or not related to treatment): Three | Responding patients who remained on treatment for over 2 years without disease progression, number ([2]; 9 responding patients): 4 | Overall response rate ([2]; evaluable population (n = 43)): 21% | Overall response, number of patients ([2]; evaluable population (n = 43)): 9 | Partial response, number of patients ([2]; evaluable population (n = 43)): 3 | Progressive disease, number of patients ([2]; evaluable population (n = 43)): 26 | Complete response, % of patients [2, 7]: 14% | Complete response, number of patients [2, 7]: 6 | Alive at 6 months [2, 8]: 54% (95% CI 37-68%) | Progression free at 6 months [2, 8]: 18% (95% CI 8-31%) | DOR (duration of response) [2, 9]: 30.0 months and 24.4 months and 23.8 months and 1.0/1.0 months and 4.2 months and 4.1 months (2×) and 2.8 months and 40.5 months | Status at end of study [2, 9]: Alive; also recorded: Deceased | TTR (time to response) [2, 9]: 2.7 months and 2.8 months (3×) and 1.0/1.0 months and 1.3 months (2×) and 4.0 months and 1.2 months | Median duration of response ([2]; responding patients of evaluable population): Not yet reached (95% CI 1.4 months- | Preclinical activity compared to HDAC or PI3K inhibitor monotherapy [3]: superior preclinical activity | Overall response rate ([4]; central or local testing): 64% | Estimated duration of response [4]: 13.6 month
